Laboratory results: PubChem BioAssay (NCI)
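Abbreviation: GI50, concentration required for 50% inhibition of growth. At the TGI there is no net growth.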

Columns and labels:
Test in all cases: NCI-60 cell line screen, 384-well format
786-0 renal = system: 786-0 renal
A498 renal = system: A498 renal
A549 NSCLC = system: A549 NSCLC
ACHN renal = system: ACHN renal
BT-549 breast = system: BT-549 breast
CAKI-1 renal = system: CAKI-1 renal
CCRF-CEM leukemia = system: CCRF-CEM leukemia
COLO 205 colon = system: COLO 205 colon
DU-145 prostate = system: DU-145 prostate
EKVX NSCLC = system: EKVX NSCLC
HCT-116 colon = system: HCT-116 colon
HCT-15 colon = system: HCT-15 colon
HOP-62 NSCLC = system: HOP-62 NSCLC
HOP-92 NSCLC = system: HOP-92 NSCLC
HS 578T breast = system: HS 578T breast
HT29 colon = system: HT29 colon
IGROV1 ovarian = system: IGROV1 ovarian
K-562 leukemia = system: K-562 leukemia
KM12 colon = system: KM12 colon
LOX IMVI melanoma = system: LOX IMVI melanoma
M14 melanoma = system: M14 melanoma
MALME-3M melanoma = system: MALME-3M melanoma
MCF7 breast = system: MCF7 breast
MDA-MB-231 breast = system: MDA-MB-231 breast
MDA-MB-435 melanoma = system: MDA-MB-435 melanoma
MDA-MB-468 breast = system: MDA-MB-468 breast
MOLT-4 leukemia = system: MOLT-4 leukemia
NCI-H226 lung = system: NCI-H226 lung
NCI-H23 lung = system: NCI-H23 lung
NCI-H322M lung = system: NCI-H322M lung
NCI-H460 NSCLC = system: NCI-H460 NSCLC
NCI-H522 lung = system: NCI-H522 lung
NCI/ADR-RES ovarian = system: NCI/ADR-RES ovarian
OVCAR-3 ovarian = system: OVCAR-3 ovarian
OVCAR-4 ovarian = system: OVCAR-4 ovarian
OVCAR-5 ovarian = system: OVCAR-5 ovarian
OVCAR-8 ovarian = system: OVCAR-8 ovarian
PC-3 prostate = system: PC-3 prostate
RPMI-8226 leukemia = system: RPMI-8226 leukemia
RXF 393 renal = system: RXF 393 renal
SF-268 CNS = system: SF-268 CNS
SF-295 CNS = system: SF-295 CNS
SF-539 CNS = system: SF-539 CNS
SK-MEL-28 melanoma = system: SK-MEL-28 melanoma
SK-MEL-5 melanoma = system: SK-MEL-5 melanoma
SK-OV-3 ovarian = system: SK-OV-3 ovarian
SN12C renal = system: SN12C renal
SNB-19 CNS = system: SNB-19 CNS
SNB-75 CNS = system: SNB-75 CNS
SR leukemia = system: SR leukemia
SW-620 colon = system: SW-620 colon
T-47D breast = system: T-47D breast
TK-10 renal = system: TK-10 renal
U251 glioblastoma = system: U251 glioblastoma
UACC-257 melanoma = system: UACC-257 melanoma
UO-31 renal = system: UO-31 renal

`C[C@H]1CNC(=O)c2cnn3ccc(nc23)N[C@H](C)c2cc(F)ccc2O1` showed a GI50 ([…]-0 renal) of 1290 nM, a TGI (786-0 renal) of 2660 nM and a GI50 (A498 renal) of 779 nM. It also gave a TGI (A498 renal) of 2100 nM, a GI50 (A549 NSCLC) of 439 nM and a TGI (A549 NSCLC) of 10800 nM. For the same molecule, the GI50 (ACHN renal) was 511 nM, the TGI (ACHN renal) was 2650 nM and the GI50 (BT-549 breast) was 1070 nM. The TGI (BT-549 breast) was 2300 nM, the GI50 (CAKI-1 renal) was 829 nM and the TGI (CAKI-1 renal) was 2090 nM. It also gave a GI50 (CCRF-CEM leukemia) of 189 nM, a TGI (CCRF-CEM leukemia) of 345 nM and a GI50 (COLO 205 colon) of 1430 nM. It also gave a TGI (COLO 205 colon) of 2930 nM, a GI50 (DU-145 prostate) of 1430 nM and a TGI (DU-145 prostate) of 5040 nM. It also gave a GI50 (EKVX NSCLC) of 469 nM, a TGI (EKVX NSCLC) of 3820 nM and a GI50 (HCT-116 colon) of 477 nM. It also gave a TGI (HCT-116 colon) of 11100 nM, a GI50 (HCT-15 colon) of 1360 nM and a TGI (HCT-15 colon) of 4600 nM. For the same molecule, the GI50 (HOP-62 NSCLC) was 1120 nM, the TGI (HOP-62 NSCLC) was 2850 nM and the GI50 (HOP-92 NSCLC) was 516 nM. For the same molecule, the TGI (HOP-92 NSCLC) was 1980 nM, the GI50 (HS 578T breast) was 249 nM and the TGI (HS 578T breast) was 1250 nM. For the same molecule, the GI50 (HT29 colon) was 776 nM, the TGI (HT29 colon) was 13400 nM and the GI50 (IGROV1 ovarian) was 229 nM. It also gave a TGI (IGROV1 ovarian) of 911 nM, a GI50 (K-562 leukemia) of 451 nM and a TGI (K-562 leukemia) of 1850 nM. For the same molecule, the TGI (KM12 colon) was 10100 nM, the GI50 (LOX IMVI melanoma) was 428 nM and the TGI (LOX IMVI melanoma) was 1450 nM. For the same molecule, the GI50 (M14 melanoma) was 31700 nM, the TGI (M14 melanoma) was > 100000 nM and the GI50 (MALME-3M melanoma) was 4210 nM. It also gave a TGI (MALME-3M melanoma) of 30000 nM, a GI50 (MCF7 breast) of 429 nM and a TGI (MCF7 breast) of 15200 nM. It also gave a GI50 (MDA-MB-231 breast) of 433 nM, a TGI (MDA-MB-231 breast) of 2460 nM and a GI50 (MDA-MB-435 melanoma) of 16100 nM. The TGI (MDA-MB-435 melanoma) was 49800 nM, the GI50 (MDA-MB-468 breast) was 629 nM and the TGI (MDA-MB-468 breast) was 2010 nM. For the same molecule, the GI50 (MOLT-4 leukemia) was 180 nM, the TGI (MOLT-4 leukemia) was 342 nM and the GI50 (NCI-H226 lung) was 525 nM. The TGI (NCI-H226 lung) was 2000 nM, the GI50 (NCI-H23 lung) was 521 nM and the TGI (NCI-H23 lung) was 6750 nM. It also gave a GI50 (NCI-H322M lung) of 1140 nM, a TGI (NCI-H322M lung) of 6010 nM and a GI50 (NCI-H460 NSCLC) of 391 nM. It also gave a TGI (NCI-H460 NSCLC) of 1690 nM, a GI50 (NCI-H522 lung) of 463 nM and a TGI (NCI-H522 lung) of 2280 nM. For the same molecule, the GI50 (NCI/ADR-RES ovarian) was 10600 nM, the TGI (NCI/ADR-RES ovarian) was 22600 nM and the GI50 (OVCAR-3 ovarian) was 414 nM. For the same molecule, the TGI (OVCAR-3 ovarian) was 2030 nM, the GI50 (OVCAR-4 ovarian) was 687 nM and the TGI (OVCAR-4 ovarian) was 7350 nM. It also gave a GI50 (OVCAR-5 ovarian) of 527 nM, a TGI (OVCAR-5 ovarian) of 2910 nM and a GI50 (OVCAR-8 ovarian) of 1650 nM. The TGI (OVCAR-8 ovarian) was 4080 nM, the GI50 (PC-3 prostate) was 668 nM and the TGI (PC-3 prostate) was 4010 nM. For the same molecule, the GI50 (RPMI-8226 leukemia) was 1610 nM, the TGI (RPMI-8226 leukemia) was 3760 nM and the GI50 (RXF 393 renal) was 187 nM. It also gave a TGI (RXF 393 renal) of 498 nM, a GI50 (SF-268 CNS) of 374 nM and a TGI (SF-268 CNS) of 1550 nM. It also gave a GI50 (SF-295 CNS) of 243 nM, a TGI (SF-295 CNS) of 1770 nM and a GI50 (SF-539 CNS) of 1020 nM. For the same molecule, the TGI (SF-539 CNS) was 2230 nM, the GI50 (SK-MEL-28 melanoma) was 17100 nM and the TGI (SK-MEL-28 melanoma) was 77100 nM. It also gave a GI50 (SK-MEL-5 melanoma) of 6620 nM, a TGI (SK-MEL-5 melanoma) of 20500 nM and a GI50 (SK-OV-3 ovarian) of 522 nM. The TGI (SK-OV-3 ovarian) was 2930 nM, the GI50 (SN12C renal) was 664 nM and the TGI (SN12C renal) was 2260 nM. For the same molecule, the GI50 (SNB-19 CNS) was 1830 nM, the TGI (SNB-19 CNS) was 7860 nM and the GI50 (SNB-75 CNS) was 209 nM. It also gave a TGI (SNB-75 CNS) of 816 nM, a GI50 (SR leukemia) of 37.2 nM and a TGI (SR leukemia) of 116 nM. The GI50 (SW-620 colon) was 444 nM, the TGI (SW-620 colon) was 2850 nM and the GI50 (T-47D breast) was 1480 nM. It also gave a TGI (T-47D breast) of 15800 nM, a GI50 (TK-10 renal) of 635 nM and a TGI (TK-10 renal) of 2100 nM. It also gave a GI50 (U251 glioblastoma) of 2290 nM, a TGI (U251 glioblastoma) of 11400 nM and a GI50 (UACC-257 melanoma) of 12200 nM. For the same molecule, the TGI (UACC-257 melanoma) was 37400 nM, the GI50 (UO-31 renal) was 1360 nM and the TGI (UO-31 renal) was 2800 nM.
